From US5633345A, “Cyclic peptides” (priority 1992, dated 1997)

Key:
Test in all cases: Antifungal activity, MIC by agar dilution method
[1] = test system: C. albicans TIMM 0171; assay type: cell-based, Candida albicans; settings: for MIC: C. albicans TIMM 0171, Sabouraud-dextrose agar medium, 30° C. for 2 days
Protocol: (§1) The minimum inhibitory concentration (MIC) values were determined after incubation at 30° C. for 2 days.

[2] = test system: Candida albicans TIMM 0136; assay type: cell-based; settings: Sabouraud-dextrose agar medium, 30° C. for 2 days
Protocol: as §1

[3] = test system: C. grabrata TIMM 1062; assay type: cell-based; settings: Sabouraud-dextrose agar medium, 30° C. for 2 days
Protocol: as §1

[4] = test system: C. kefyr TIMM 0301; assay type: cell-based; settings: Sabouraud-dextrose agar medium, 30° C. for 2 days
Protocol: as §1

[5] = test system: Cryptococcus neoformans TIMM 0354; assay type: cell-based; settings: Sabouraud-dextrose agar medium, 30° C. for 2 days
Protocol: as §1

Row | Substance | MIC [1] [µg/mL] | MIC [2] [µg/mL] | MIC [3] [µg/mL] | MIC [4] [µg/mL] | MIC [5] [µg/mL] | activity against Candida albicans TIMM 0171 compared with compound 1 ([1]; comparison in words)
1 | cyclo(L-RONva-L-MeVal-L-Leu-L-βHOMeVal-D-Hmp-L-MeVal-L-Phe-L-MePhe-L- Pro) (R: n-hexanoyl) [Compound 37] | 0.10 | 0.10 | 0.39 | 0.78 | 12.5 | 
2 | cyclo(L-aIle-L-MeVal-L-GluOR-L-βHOMeVal-D-Hmp-L-MeVal-L-Phe-L-MePhe-L-Pro) (R: cHex) [Compound 38] | 0.013 | 0.20 | 1.56 | 3.12 | > 25 | higher activity against Candida albicans TIMM 0171 than compound 1
3 | cyclo(L-GluOR-L-MeVal-L-Leu-L-βHOMeVal-D-Hmp-L-MeVal-L-Phe-L-MePhe-L- Pro) (R: n-hexyl) [Compound 31] | 0.20 | 0.39 | 1.56 | 3.12 | > 25 | 
4 | cyclo(L-GluOR-L-MeVal-L-Leu-L-βHOMeVal-D-Hmp-L-MeVal-L-Phe-L-MePhe-L- Pro) (R: cis-3-hexenyl) [Compound 34] | 0.10 | 0.20 | 0.39 | 0.78 | > 25 | 
5 | cyclo(L-GluOR-L-MeVal-L-Leu-L-βHOMeVal-D-Hmp-L-MeVal-L-Phe-L-MePhe-L- Pro) (R: n-decyl) [Compound 33] | 1.56 | 1.56 | > 25 | > 25 | > 25 | 
6 | cyclo(L-aIle-L-ROMeNva-L-Leu-L-βHOMeVal-D-Hmp-L-MeVal-L-Phe-L-MePhe-L-Pro) (R: Bzl) [Compound 27] | 0.78 | 0.78 | > 25 | 3.12 | > 25 | 
7 | cyclo(L-GluOR-L-MeVal-L-Leu-L-βHOMeVal-D-Hmp-L-MeVal-L-Phe-L-MePhe-L- Pro) (R: trans-3-hexenyl) [Compound 35] | 0.78 | 0.20 | 0.39 | 1.56 | > 25 | 
8 | cyclo(L-GluOR-L-MeVal-L-Leu-L-βHOMeVal-D-Hmp-L-MeVal-L-Phe-L-MePhe-L- Pro) (R: n-octyl) [Compound 32] | 0.78 | 0.78 | 1.56 | 6.25 | > 25 | 
